Measured values as given in patent US12409206B2, “Use of cyclosporine analogues for treating fibrosis” (Hepion Pharmaceuticals, Inc., priority 2020, dated 2025).
Read-outs that look alike come from different tables or passages of the source.

System: human precision cut liver slices (PCLS)
Experiment: PCLS RNA-Seq, Stimulation Protocol: TGFb/PDGF+CRV vs TGFb/PDGF+Vehicle
Type: cell-based
Conditions: for fold change in RNA: presence of exogenous TGFβ+PDGF-BB, universal in all donors
Procedure: PCLS were obtained from 5 human donors who underwent resection of liver cancer. Replicate slices were collected from healthy margins of the resections and cultured for 4 or 6 days depending on the experimental protocol. In the Nonstimulation Protocol slices were cultured for 6 days and treated for the entire period with DMSO vehicle or 5 μM CRV431. In the Stimulation Protocol slices were rested for 1 day and then administered the cytokines, TGFβ and PDGF-BB, for 3 days to stimulate inflammation and fibrosis. DMSO vehicle, CRV431 (1 and 5 μM), Alk5i (10 μM), obeticholic acid (5 μM), elafibranor (5 μM), resmetirom ([…]), and Aramchol (5 μM) were administered individually as drug treatments in the Stimulation Protocol concurrent with TGFβ+PDGF-BB. Culture medium treatments were replaced daily.
Four types of evaluations were conducted on the PCLS: (a) secretion of inflammation and fibrosis biomarkers into the culture medium, (b) histological staining and quantitation of Sirius red as a measure of tissue fibrosis, (c) gene expression of inflammation and fibrosis biomarkers by RT-PCR, and (d) RNA sequencing (RNA-Seq) of the complete transcriptome. Each of the four types of evaluation is described below: • (a) Biomarker secretion. Spent culture medium was collected daily from duplicate slices for each treatment. ELISAs were used to quantify secretion of monocyte chemoattractant protein (MCP-1), interleukin-6 (IL-6), tissue inhibitor of metalloproteinase-1 (TIMP1), hyaluronic acid, fibronectin, and collagen 1α1. For each donor the mean level of biomarker secretion in each treatment group was expressed as a percentage change relative to DMSO vehicle, the percentages averaged for all donors, and finally the mean daily percentage change calculated from all days of evaluation. Results are shown in FIG. 8A (secreted markers-% daily average change). • (b) Sirius red histological staining. […] Sirius red was quantified morphometrically in the histological sections as the percentage area with Sirius red staining in 10 sections from each treatment. In the Nonstimulation Protocol the quantity of Sirius red staining was expressed relative to the vehicle group. In the Stimulation Protocol the quantity of Sirius red staining was expressed relative to nonstimulated PCLS (0%) and TGFβ+PDGF-BB-stimulated+vehicle PCLS (100%). Results are shown in FIG. 8B (Sirius red staining for tissue fibrosis). • (c) Gene expression by RT-PCR. RNA was isolated from duplicate liver slices per treatment at the end of the experiments and evaluated by RT-PCR for 5 markers of inflammation and fibrosis: MCP-1, IL-6, TIMP1, αSMA, and collagen 1α1. β actin was used as a reference gene to calculate relative levels of each target gene RNA. […] Results are shown in FIG. 8C (gene expression by RT-PCR). • (d) Gene expression by RNA-Seq. RNA sequencing of the complete transcriptome (30 million reads per sample) was conducted on vehicle and 5 μM CRV431 treatment groups from 3 donors both from the Nonstimulation and Stimulation Protocols. Data were analyzed by bioinformatics software programs to identify genes that were differentially expressed between vehicle and CRV431 treatments.
For the evaluation done for (d), 12 samples corresponding to 3 different donor slides which underwent 4 different treatments were studied. the comparisons carried out in this analysis are: (1) TGFb/PDGF+CRV vs TGFb/PDGF+Vehicle (V), and (2) Non-stimulated+CRV vs Non-stimulated+Vehicle. […] Table 1. Samples for evaluation (d)
Quality Control check was performed in all samples. All samples had more than 30 million reads and a quality score average >35 for almost all the bases in the sequences. The duplication levels are expected as it is RNA sequencing, and different copies of the same RNA are expected to be present in the samples. All samples had good amount of reads and quality, therefore all samples passed the QC checked and were included in the analysis. […]

SMILES: CC[C@@H]1NC(=O)[C@H]([C@H](O)[C@H](C)CCCCCCNC(C)=O)N(C)C(=O)[C@H](C(C)C)N(C)C(=O)[C@H](CC(C)C)N(C)C(=O)[C@H](CC(C)C)N(C)C(=O)[C@@H](C)NC(=O)[C@H](C)NC(=O)[C@H](CC(C)C)N(C)C(=O)[C@H](C(C)C)NC(=O)[C@H](CC(C)C)N(C)C(=O)[C@@H](C)N(C)C1=O [CRV431]
- log2FoldChange: 1.025
- log2FoldChange (gene AC009053.1, TGFb/PDGF+CRV vs TGFb/PDGF+Vehicle): 1.194
- log2FoldChange (gene AC134772.2, TGFb/PDGF+CRV vs TGFb/PDGF+Vehicle): −4.561
- log2FoldChange (gene ADH1B, TGFb/PDGF+CRV vs TGFb/PDGF+Vehicle): 2.156
- log2FoldChange (gene ADH1C, TGFb/PDGF+CRV vs TGFb/PDGF+Vehicle): 1.869
- log2FoldChange (gene ADH4, TGFb/PDGF+CRV vs TGFb/PDGF+Vehicle): 2.123
- log2FoldChange (gene ADH6, TGFb/PDGF+CRV vs TGFb/PDGF+Vehicle): 1.903
- log2FoldChange (gene ADIRF, TGFb/PDGF+CRV vs TGFb/PDGF+Vehicle): 1.402
- log2FoldChange (gene APLNR, TGFb/PDGF+CRV vs TGFb/PDGF+Vehicle): 0.844
- log2FoldChange (gene ASPG, TGFb/PDGF+CRV vs TGFb/PDGF+Vehicle): 0.91
- log2FoldChange (gene ATP13A4, TGFb/PDGF+CRV vs TGFb/PDGF+Vehicle): −3.082
- log2FoldChange (gene C7, TGFb/PDGF+CRV vs TGFb/PDGF+Vehicle): 0.739
- log2FoldChange (gene CA11, TGFb/PDGF+CRV vs TGFb/PDGF+Vehicle): −1.573
- log2FoldChange (gene CBFA2T2, TGFb/PDGF+CRV vs TGFb/PDGF+Vehicle): 1.299
- log2FoldChange (gene CD93, TGFb/PDGF+CRV vs TGFb/PDGF+Vehicle): −0.613
- log2FoldChange (gene CHST1, TGFb/PDGF+CRV vs TGFb/PDGF+Vehicle): −1.087
- log2FoldChange (gene COL5A3, TGFb/PDGF+CRV vs TGFb/PDGF+Vehicle): −0.842
- log2FoldChange (gene CXADR, TGFb/PDGF+CRV vs TGFb/PDGF+Vehicle): 1.61
- log2FoldChange (gene CYP4A11, TGFb/PDGF+CRV vs TGFb/PDGF+Vehicle): 1.611
- log2FoldChange (gene CYP26A1, TGFb/PDGF+CRV vs TGFb/PDGF+Vehicle): −1.283
- log2FoldChange (gene CYP26B1, TGFb/PDGF+CRV vs TGFb/PDGF+Vehicle): −0.656
- log2FoldChange (gene DCHS1, TGFb/PDGF+CRV vs TGFb/PDGF+Vehicle): −0.686
- log2FoldChange (gene DLL4, TGFb/PDGF+CRV vs TGFb/PDGF+Vehicle): −0.69
- log2FoldChange (gene DUOX2, TGFb/PDGF+CRV vs TGFb/PDGF+Vehicle): −2.182
- fold change in RNA (gene DUOX2): −4.5 fold
- log2FoldChange (gene DVL1, TGFb/PDGF+CRV vs TGFb/PDGF+Vehicle): 0.635
- log2FoldChange (gene ENSG00000283623 (symbol NA), TGFb/PDGF+CRV vs TGFb/PDGF+Vehicle): −5.759
- log2FoldChange (gene ERVK13-1, TGFb/PDGF+CRV vs TGFb/PDGF+Vehicle): −1.125
- log2FoldChange (gene ESAM, TGFb/PDGF+CRV vs TGFb/PDGF+Vehicle): −0.573
- log2FoldChange (gene ESM1, TGFb/PDGF+CRV vs TGFb/PDGF+Vehicle): −1.401
- fold change in RNA (gene ESMI): −2.6 fold
- log2FoldChange (gene ESR1, TGFb/PDGF+CRV vs TGFb/PDGF+Vehicle): 3.688
- log2FoldChange (gene F2RL3, TGFb/PDGF+CRV vs TGFb/PDGF+Vehicle): −0.711
- log2FoldChange (gene GLYATL1, TGFb/PDGF+CRV vs TGFb/PDGF+Vehicle): 1.438
- log2FoldChange (gene GPR4, TGFb/PDGF+CRV vs TGFb/PDGF+Vehicle): −0.9
- log2FoldChange (gene GRAP, TGFb/PDGF+CRV vs TGFb/PDGF+Vehicle): −0.772
- log2FoldChange (gene HIST2H2AA4, TGFb/PDGF+CRV vs TGFb/PDGF+Vehicle): −7.504
- log2FoldChange (gene IGHV4-61, TGFb/PDGF+CRV vs TGFb/PDGF+Vehicle): 7.957
- log2FoldChange (gene IGLON5, TGFb/PDGF+CRV vs TGFb/PDGF+Vehicle): −0.851
- log2FoldChange (gene ISLR2, TGFb/PDGF+CRV vs TGFb/PDGF+Vehicle): −1.27
- log2FoldChange (gene KDM6A, TGFb/PDGF+CRV vs TGFb/PDGF+Vehicle): 0.785
- log2FoldChange (gene LAMA4, TGFb/PDGF+CRV vs TGFb/PDGF+Vehicle): −0.939
- log2FoldChange (gene LIMS3, TGFb/PDGF+CRV vs TGFb/PDGF+Vehicle): −1.705
- log2FoldChange (gene LOXL2, TGFb/PDGF+CRV vs TGFb/PDGF+Vehicle): −0.948
- fold change in RNA (gene LOXL2): −1.9 fold
- log2FoldChange (gene MCAM, TGFb/PDGF+CRV vs TGFb/PDGF+Vehicle): −0.841
- log2FoldChange (gene MEF2C, TGFb/PDGF+CRV vs TGFb/PDGF+Vehicle): −1.013
- log2FoldChange (gene MEG3, TGFb/PDGF+CRV vs TGFb/PDGF+Vehicle): −0.853
- log2FoldChange (gene MRC2, TGFb/PDGF+CRV vs TGFb/PDGF+Vehicle): −0.773
- log2FoldChange (gene MROH2A, TGFb/PDGF+CRV vs TGFb/PDGF+Vehicle): 3.641
- log2FoldChange (gene MT-CO1, TGFb/PDGF+CRV vs TGFb/PDGF+Vehicle): −0.85
- log2FoldChange (gene NID2, TGFb/PDGF+CRV vs TGFb/PDGF+Vehicle): −0.755
- log2FoldChange (gene NXPH4, TGFb/PDGF+CRV vs TGFb/PDGF+Vehicle): −0.808
- log2FoldChange (gene PAN2, TGFb/PDGF+CRV vs TGFb/PDGF+Vehicle): 1.019
- log2FoldChange (gene PANK3, TGFb/PDGF+CRV vs TGFb/PDGF+Vehicle): 0.687
- log2FoldChange (gene PCDH12, TGFb/PDGF+CRV vs TGFb/PDGF+Vehicle): −0.741
- log2FoldChange (gene PHF8, TGFb/PDGF+CRV vs TGFb/PDGF+Vehicle): 0.709
- log2FoldChange (gene PKLR, TGFb/PDGF+CRV vs TGFb/PDGF+Vehicle): 2.127
- log2FoldChange (gene PLXNA2, TGFb/PDGF+CRV vs TGFb/PDGF+Vehicle): 1.326
- log2FoldChange (gene POU6F1, TGFb/PDGF+CRV vs TGFb/PDGF+Vehicle): −1.716
- log2FoldChange (gene PPP1R16B, TGFb/PDGF+CRV vs TGFb/PDGF+Vehicle): −1.016
- log2FoldChange (gene RALGPS2, TGFb/PDGF+CRV vs TGFb/PDGF+Vehicle): 0.836
- log2FoldChange (gene RBMXL1, TGFb/PDGF+CRV vs TGFb/PDGF+Vehicle): −8.265
- log2FoldChange (gene RCCD1, TGFb/PDGF+CRV vs TGFb/PDGF+Vehicle): −1.838
- fold change in RNA (gene RCCD1): −3.6 fold
- log2FoldChange (gene RHCG, TGFb/PDGF+CRV vs TGFb/PDGF+Vehicle): −0.927
- log2FoldChange (gene RPS7P1, TGFb/PDGF+CRV vs TGFb/PDGF+Vehicle): 2.668
- log2FoldChange (gene SLC4A8, TGFb/PDGF+CRV vs TGFb/PDGF+Vehicle): −2.641
- log2FoldChange (gene SLC26A6, TGFb/PDGF+CRV vs TGFb/PDGF+Vehicle): −0.692
- log2FoldChange (gene SLC39A5, TGFb/PDGF+CRV vs TGFb/PDGF+Vehicle): 1.92
- log2FoldChange (gene SMC5, TGFb/PDGF+CRV vs TGFb/PDGF+Vehicle): 0.799
- log2FoldChange (gene STRA6, TGFb/PDGF+CRV vs TGFb/PDGF+Vehicle): −1.639
- fold change in RNA (gene STRA6): −3.1 fold
- log2FoldChange (gene TDO2, TGFb/PDGF+CRV vs TGFb/PDGF+Vehicle): 0.916
- log2FoldChange (gene TMEM70, TGFb/PDGF+CRV vs TGFb/PDGF+Vehicle): 1.062
- log2FoldChange (gene TTYH2, TGFb/PDGF+CRV vs TGFb/PDGF+Vehicle): −1.114
- fold change in RNA (gene UBD/FAT10): −2.0 fold
- log2FoldChange (gene UBD, TGFb/PDGF+CRV vs TGFb/PDGF+Vehicle): −1.035
- log2FoldChange (gene VWA8, TGFb/PDGF+CRV vs TGFb/PDGF+Vehicle): 1.514
- log2FoldChange (gene ZC3H10, TGFb/PDGF+CRV vs TGFb/PDGF+Vehicle): 1.022
- log2FoldChange (gene ZDHHC20, TGFb/PDGF+CRV vs TGFb/PDGF+Vehicle): 1.207
- log2FoldChange (gene ZNF461, TGFb/PDGF+CRV vs TGFb/PDGF+Vehicle): 1.391
